Test results: patent US20160303251A1, “CONJUGATES OF GARFTASE INHIBITORS” (ENDOCYTE, INC., priority 2015, published 2016)
pIC50: −log10 of the molar value.

What was measured:
KB cells = assay: In vitro activity in KB cells (3H-thymidine incorporation); type: cell-based, human; settings: 2 hr pulse at 37° C., chase up to 70 hr
Method: Cells were seeded in 24-well Falcon plates and allowed to form nearly confluent monolayers overnight. After one rinse with 1 mL of fresh FFRPMI/HIFCS, each well received 1 mL of medium containing increasing concentrations of test agent (3 wells per sample). Cells were pulsed with targeted agents for 2 hr at 37° C., rinsed 4 times with 0.5 mL of medium, and then chased in 1 mL of fresh medium up to 70 hr. Cells were treated with non-targeted agent ECO347 for a continuous 72 h. Spent medium was aspirated from all wells and replaced with fresh medium containing 5 μCi/mL ^3H-thymidine. After a further 2 hr 37° C. incubation, cells were washed 3 times with 0.5 mL of PBS and then treated with 0.5 mL of ice-cold 5% trichloroacetic acid per well. After 15 min, the trichloroacetic acid. was aspirated and the cell material solubilized by the addition of 0.5 mL of 0.25 N sodium hydroxide for 15 min. Four hundred and fifty microliters of each solubilized sample were transferred to scintillation vials containing 3 mL of Ecolume scintillation cocktail and then counted in a liquid scintillation counter. Final tabulated results were expressed as the percentage of ^3H-thymidine incorporation relative to untreated controls and IC50 values calculated using Graphpad Prism software.

subcutaneous KB tumors = assay: Antitumor activity in KB tumor model; type: in vivo, mice; settings: for PR, complete responses or cure: 1 μmol/kg
Method: METHOD. Inhibition of Tumor Growth in Mice. Four to seven week-old mice (Balb/c or nu/nu strains) are purchased from Harlan Sprague Dawley, Inc. (Indianapolis, Ind.). […] For tumor cell inoculation, 1×10^6 M109 cells (a syngeneic lung carcinoma) in Balb/c strain, or 1×10^6 KB cells in nu/nu strain, in 100 μL are injected in the subcutis of the dorsal medial area (right axilla). Tumors are measured in two perpendicular directions every 2-3 days using a caliper, and their volumes are calculated as 0.5×L×W^2, where L=measurement of longest axis in mm and W=measurement of axis perpendicular to L in mm.
Dosing is initiated when the s.c. tumors have an average volume between 50-100 […] (t0), typically 8 days post tumor inoculation (PTI) for KB tumors, and 11 days PTI for M109 tumors. Test animals (5/group) are injected i.v., generally three times a week (TIW), for 3 weeks with varying doses, such as with 1 μmol/kg to 5 μmol/kg, of the conjugate or with an equivalent dose volume of PBS (control), unless otherwise indicated. Dosing solutions are prepared fresh each day in PBS and administered through the lateral tail vein of the mice.
Female Balb/c nu/nu mice were fed ad libitum with folate-deficient chow (Harlan diet #TD01013) for the duration of the experiment. KB tumor cells were inoculated subcutaneously at the right flank of each mouse. Mice were dosed after the tumors have reached a range of 107-152 mm^3 through the lateral tail vein under sterile conditions in a volume of 200 μL of phosphate-buffered saline (PBS).
Growth of each s.c. tumor was followed by measuring the tumor two times per week. Tumors were measured in two perpendicular directions using Vernier calipers, and their volumes were calculated as 0.5×L×W^2, where L=measurement of longest axis in mm and W=measurement of axis perpendicular to L in mm.

[1] = 0.5 μmol/kg (EC1953 printed 0.5 mol/kg), TIW×2 wk, n=5
[2] = 1 μmol/kg (EC1953, EC 2014 printed 1 mol/kg), TIW×2 wk, n=5
[3] = mice having subcutaneous KB tumors

With Nc1nc2[nH]c(CCCc3ccc(C(=O)N[C@@H](CCC(=O)O)C(=O)O)s3)cc2c(=O)[nH]1 [AG94, reference compound] as the compound, how does the pIC50 (KB cells; Homo sapiens) read?
Its pIC50 is 8.60.

What about the “PR, complete responses or cure” value (subcutaneous KB tumors; TIW×2 wk, n=5) of the same compound?
Its value is “none of the treatment groups showed a PR, complete responses, or cure”.

How did the pIC50 (KB cells; Homo sapiens) turn out when Nc1nc2[nH]c(CCCCCCCC(=O)N[C@@H](CCC(=O)O)C(=O)O)cc2c(=O)[nH]1 [AG147, reference compound] was run?
Its pIC50 is 8.92.

How did the pIC50 (KB cells) turn out when CCCC(=O)OCN(C(=O)[C@@H](NC(=O)[C@H]1CCCCN1C)C(C)CC)[C@H](C[C@@H](OC(C)=O)c1nc(C(=O)N[C@@H](Cc2ccc(O)cc2)C[C@H](C)C(=O)NNC(=O)OCCSSCCC(=O)N[C@@H](CCC(=O)NC[C@H](O)[C@@H](O)[C@H](O)[C@H](O)CO)C(=O)N[C@@H](CCC(=O)O)C(=O)N[C@@H](CCC(=O)NC[C@H](O)[C@@H](O)[C@H](O)[C@H](O)CO)C(=O)N[C@@H](CCC(=O)O)C(=O)N[C@@H](CCC(=O)NC[C@H](O)[C@@H](O)[C@H](O)[C@H](O)CO)C(=O)N[C@@H](CSSCCOC(=O)CC[C@H](NC(=O)c2ccc(CCCc3cc4c(=O)[nH]c(N)nc4[nH]3)s2)C(=O)O)C(=O)O)cs1)C(C)C (some centres unmarked) [EC1953] was run?
Its pIC50 is 9.40.

What about the “CR (complete responses) of {PR, CR, cure}” value (subcutaneous KB tumors; [1]) of the same compound?
The value was 1.

What about the “PR (partial responses) of {PR, CR, cure}” value (subcutaneous KB tumors; [1]) of the same compound?
Its value is 3.

What about the “cure of {PR, CR, cure}” value (subcutaneous KB tumors; [2]) of the same compound?
The value was 5.

And the “cure of {PR, CR, cure}” value (subcutaneous KB tumors; 2 umol/kg, q5d×2 wk (independent dosing protocol))?
The value was 5.

And the “cure of {PR, CR, cure}” value (subcutaneous KB tumors; 2 μmol/kg, single dose, n=5)?
The value was 2.

And the “cures, observation period extended for 90 days” value (subcutaneous KB tumors; 1 mol/kg (so in the source), TIW×2 wk)?
Its value is 5/5.

And the “cures, observation period extended for 90 days” value (subcutaneous KB tumors; 2 mol/kg (so in the source), TIW×2 wk)?
Its value is 5/5.

What about the “cure of {PR, CR, cure}” value (subcutaneous KB tumors; 2 mol/kg (so in the source), TIW×2 wk, n=5) of the same compound?
The value was 5.

What about the “dose response” value (subcutaneous KB tumors; [3]) of the same compound?
Its value is “shows a dose response”.

And the “efficacy compared to comparator” value (subcutaneous KB tumors; [3])?
The value was “more efficacious than the comparator folate-tubulysin conjugate”.

Which results are given for CCCC(=O)OCN(C(=O)[C@@H](NC(=O)[C@H]1CCCCN1C)C(C)CC)[C@H](C[C@@H](OC(C)=O)c1nc(C(=O)N[C@@H](Cc2ccc(O)cc2)C[C@H](C)C(=O)NNC(=O)OCCSSCCC(=O)N[C@@H](CCC(=O)NC[C@H](O)[C@@H](O)[C@H](O)[C@H](O)CO)C(=O)N[C@@H](CCC(=O)O)C(=O)N[C@@H](CCC(=O)NC[C@H](O)[C@@H](O)[C@H](O)[C@H](O)CO)C(=O)N[C@@H](CCC(=O)O)C(=O)N[C@@H](CCC(=O)NC[C@H](O)[C@@H](O)[C@H](O)[C@H](O)CO)C(=O)N[C@@H](CSSCCOC(=O)CC[C@H](NC(=O)CCCCCCCc2cc3c(=O)[nH]c(N)nc3[nH]2)C(=O)O)C(=O)O)cs1)C(C)C (some centres unmarked) [EC2014]?
pIC50 (KB cells): 9.47; cure of {PR, CR, cure} (subcutaneous KB tumors; [2]): 5

Which “PR, complete responses or cure” value (subcutaneous KB tumors; TIW×2 wk, n=5) does the source give for “tubulysin B-monohydrazide [reference compound]” here?
Its value is “none of the treatment groups showed a PR, complete responses, or cure”.
